These results are taken from publication PMC5862616 (Oncotarget, 2018).

Entries after “also recorded” stand apart in the source; their conditions may differ.

One experiment addresses T1, MERTK (Homo sapiens, UniProt Q12866).
T1 sequence (Q12866 21-999): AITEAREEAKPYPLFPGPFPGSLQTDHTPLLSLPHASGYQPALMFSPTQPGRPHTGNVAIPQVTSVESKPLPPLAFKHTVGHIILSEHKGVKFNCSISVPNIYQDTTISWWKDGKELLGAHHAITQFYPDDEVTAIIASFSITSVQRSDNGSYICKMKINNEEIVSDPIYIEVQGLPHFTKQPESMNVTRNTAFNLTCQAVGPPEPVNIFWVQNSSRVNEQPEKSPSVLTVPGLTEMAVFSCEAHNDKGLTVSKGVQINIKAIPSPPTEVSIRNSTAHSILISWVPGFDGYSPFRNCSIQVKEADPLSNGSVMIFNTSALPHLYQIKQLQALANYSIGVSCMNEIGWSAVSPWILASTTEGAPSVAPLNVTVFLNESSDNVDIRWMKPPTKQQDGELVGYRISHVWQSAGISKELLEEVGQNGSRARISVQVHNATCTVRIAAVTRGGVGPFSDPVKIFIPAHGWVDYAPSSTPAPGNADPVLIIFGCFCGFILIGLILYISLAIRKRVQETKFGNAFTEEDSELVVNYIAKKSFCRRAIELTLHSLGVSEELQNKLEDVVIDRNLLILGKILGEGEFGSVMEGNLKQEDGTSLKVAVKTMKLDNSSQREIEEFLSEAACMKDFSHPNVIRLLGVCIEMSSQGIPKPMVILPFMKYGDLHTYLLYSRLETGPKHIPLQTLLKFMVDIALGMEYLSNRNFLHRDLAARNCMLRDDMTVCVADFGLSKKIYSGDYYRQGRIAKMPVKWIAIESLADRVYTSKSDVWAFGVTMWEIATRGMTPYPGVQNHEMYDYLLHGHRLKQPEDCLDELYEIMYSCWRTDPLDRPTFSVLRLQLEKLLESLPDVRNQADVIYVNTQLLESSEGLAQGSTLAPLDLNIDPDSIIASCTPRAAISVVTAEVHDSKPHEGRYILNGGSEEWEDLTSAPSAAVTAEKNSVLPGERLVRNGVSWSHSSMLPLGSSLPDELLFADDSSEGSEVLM
Put plainly: scanMAX kinase panel.

The target in a further experiment is MKNK1 (Homo sapiens, UniProt Q9BUB5). Briefly: scanMAX kinase panel.
Another experiment concerns the target TEK (TIE2) (Homo sapiens, UniProt Q02763). Put plainly: scanMAX kinase panel.
For experiment [1], the system named is p-ERK (MAPK 42/44) in KM-12 cells. Briefly: Western blot of phosphorylated MAPK 42/44 (ERK) in KM-12 cells. The format is cell-based. Particulars: KM-12 cells, 2 hours, western blot; b12: 100, 500, 1000 nM. Here is the method:
(§1) 20 μg NTRK1 fusion confirmation
(§2) T20 (ThermoScientific, Rockford, IL) for 30 minutes. MiniPrep cat# R2051 following manufacturer ’s protocol. […]
(§3) (1:2000) (Sigma-Aldrich), HRP-conjugated mouse or primers. The primer sequences are TPM3_Ex3B_F5:
(§4) Chalfont, UK). All western blots were developed using Ex12_R5: […]. PCR was […]

The next experiment addresses RET (Homo sapiens, UniProt P07949). Briefly: scanMAX kinase panel.
The target in the next experiment is MET (Homo sapiens, UniProt P08581). Briefly: scanMAX kinase panel.
The target in another experiment is MST1R (Homo sapiens, UniProt Q04912). Put plainly: scanMAX kinase panel.
Experiment [2] deals with MKNK1/2 (p-eIF4E S209) in KM-12 cells. Put plainly: Western blot of p-eIF4E S209 in KM-12 cells. The format is cell-based. Particulars: KM-12 cells, 2 hours, western blot; for p-eIF4E reduction (MKNK1/2 inhibition, in words): b12: 100, 500, 1000 nM. Here is the method: as §1, §2, §3, §4
On the technique in general: A western blot detects proteins with antibodies after separation by electrophoresis.

The target of the next experiment is T2, DDR2 (Homo sapiens, UniProt Q16832).
T2 sequence (Q16832 22-855): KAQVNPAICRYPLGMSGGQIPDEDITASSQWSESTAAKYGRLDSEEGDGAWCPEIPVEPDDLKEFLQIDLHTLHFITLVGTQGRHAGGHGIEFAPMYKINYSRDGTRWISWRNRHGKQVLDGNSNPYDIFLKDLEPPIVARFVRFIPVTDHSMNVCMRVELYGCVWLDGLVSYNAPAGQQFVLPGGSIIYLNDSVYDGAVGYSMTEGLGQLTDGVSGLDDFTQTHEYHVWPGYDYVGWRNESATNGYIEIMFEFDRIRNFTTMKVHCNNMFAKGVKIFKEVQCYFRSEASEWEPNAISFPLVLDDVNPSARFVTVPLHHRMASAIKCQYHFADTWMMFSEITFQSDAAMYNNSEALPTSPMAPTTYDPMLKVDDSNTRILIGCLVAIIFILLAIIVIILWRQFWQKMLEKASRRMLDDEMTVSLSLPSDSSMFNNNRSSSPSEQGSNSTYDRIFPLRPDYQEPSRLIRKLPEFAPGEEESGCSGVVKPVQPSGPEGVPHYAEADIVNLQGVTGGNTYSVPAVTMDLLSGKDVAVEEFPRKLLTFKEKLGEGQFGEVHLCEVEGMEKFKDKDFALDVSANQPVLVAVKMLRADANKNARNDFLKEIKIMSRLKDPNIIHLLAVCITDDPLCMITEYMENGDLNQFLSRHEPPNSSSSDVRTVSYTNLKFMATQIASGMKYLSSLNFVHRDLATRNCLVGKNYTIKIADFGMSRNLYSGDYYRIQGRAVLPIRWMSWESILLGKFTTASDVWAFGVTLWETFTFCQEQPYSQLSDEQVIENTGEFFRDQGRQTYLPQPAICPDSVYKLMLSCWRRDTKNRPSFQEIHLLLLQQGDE
Put plainly: scanMAX kinase panel.

In experiment [3] the target is TPM3-NTRK1 (p-NTRK1 Y490) in KM-12 cells (Homo sapiens, UniProt P04629+P06753). Put plainly: Western blot of p-NTRK1 Y490 in KM-12 cells. Particulars: 2 hours, b12: 100, 500, 1000 nM.
TPM3-NTRK1 (p-NTRK1 Y490) in KM-12 cells, sequence (P06753+P04629 fused): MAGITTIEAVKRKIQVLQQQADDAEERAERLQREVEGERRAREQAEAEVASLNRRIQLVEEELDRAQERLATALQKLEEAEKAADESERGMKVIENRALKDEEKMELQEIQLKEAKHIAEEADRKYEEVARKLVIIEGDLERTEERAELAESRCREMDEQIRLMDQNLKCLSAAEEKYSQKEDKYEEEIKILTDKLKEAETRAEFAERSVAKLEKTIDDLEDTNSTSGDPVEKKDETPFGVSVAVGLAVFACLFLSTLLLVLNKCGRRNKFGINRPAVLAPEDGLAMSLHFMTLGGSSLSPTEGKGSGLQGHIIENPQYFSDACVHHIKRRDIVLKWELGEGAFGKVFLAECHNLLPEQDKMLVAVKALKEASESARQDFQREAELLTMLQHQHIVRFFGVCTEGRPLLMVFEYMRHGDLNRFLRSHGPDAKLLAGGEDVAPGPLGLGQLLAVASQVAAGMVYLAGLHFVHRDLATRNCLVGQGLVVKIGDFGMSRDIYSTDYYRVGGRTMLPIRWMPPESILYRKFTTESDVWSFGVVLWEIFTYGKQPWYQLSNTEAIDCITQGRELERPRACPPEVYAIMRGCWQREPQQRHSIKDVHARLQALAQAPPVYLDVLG

MKNK1, sequence (Q9BUB5 whole entry): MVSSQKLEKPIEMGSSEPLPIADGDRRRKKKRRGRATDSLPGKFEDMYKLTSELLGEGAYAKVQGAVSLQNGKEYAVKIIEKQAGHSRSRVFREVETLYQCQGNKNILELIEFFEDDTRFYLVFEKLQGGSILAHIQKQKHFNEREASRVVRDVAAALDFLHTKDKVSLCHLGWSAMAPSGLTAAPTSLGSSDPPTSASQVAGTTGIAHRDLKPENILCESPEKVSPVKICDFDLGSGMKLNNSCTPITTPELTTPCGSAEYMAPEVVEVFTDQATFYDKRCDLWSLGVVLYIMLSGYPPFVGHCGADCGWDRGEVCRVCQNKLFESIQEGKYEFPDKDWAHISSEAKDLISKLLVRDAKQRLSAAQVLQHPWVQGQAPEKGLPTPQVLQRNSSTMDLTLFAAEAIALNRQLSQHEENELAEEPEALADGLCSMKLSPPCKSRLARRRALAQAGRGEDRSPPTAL
RET, sequence (P07949 29-1114): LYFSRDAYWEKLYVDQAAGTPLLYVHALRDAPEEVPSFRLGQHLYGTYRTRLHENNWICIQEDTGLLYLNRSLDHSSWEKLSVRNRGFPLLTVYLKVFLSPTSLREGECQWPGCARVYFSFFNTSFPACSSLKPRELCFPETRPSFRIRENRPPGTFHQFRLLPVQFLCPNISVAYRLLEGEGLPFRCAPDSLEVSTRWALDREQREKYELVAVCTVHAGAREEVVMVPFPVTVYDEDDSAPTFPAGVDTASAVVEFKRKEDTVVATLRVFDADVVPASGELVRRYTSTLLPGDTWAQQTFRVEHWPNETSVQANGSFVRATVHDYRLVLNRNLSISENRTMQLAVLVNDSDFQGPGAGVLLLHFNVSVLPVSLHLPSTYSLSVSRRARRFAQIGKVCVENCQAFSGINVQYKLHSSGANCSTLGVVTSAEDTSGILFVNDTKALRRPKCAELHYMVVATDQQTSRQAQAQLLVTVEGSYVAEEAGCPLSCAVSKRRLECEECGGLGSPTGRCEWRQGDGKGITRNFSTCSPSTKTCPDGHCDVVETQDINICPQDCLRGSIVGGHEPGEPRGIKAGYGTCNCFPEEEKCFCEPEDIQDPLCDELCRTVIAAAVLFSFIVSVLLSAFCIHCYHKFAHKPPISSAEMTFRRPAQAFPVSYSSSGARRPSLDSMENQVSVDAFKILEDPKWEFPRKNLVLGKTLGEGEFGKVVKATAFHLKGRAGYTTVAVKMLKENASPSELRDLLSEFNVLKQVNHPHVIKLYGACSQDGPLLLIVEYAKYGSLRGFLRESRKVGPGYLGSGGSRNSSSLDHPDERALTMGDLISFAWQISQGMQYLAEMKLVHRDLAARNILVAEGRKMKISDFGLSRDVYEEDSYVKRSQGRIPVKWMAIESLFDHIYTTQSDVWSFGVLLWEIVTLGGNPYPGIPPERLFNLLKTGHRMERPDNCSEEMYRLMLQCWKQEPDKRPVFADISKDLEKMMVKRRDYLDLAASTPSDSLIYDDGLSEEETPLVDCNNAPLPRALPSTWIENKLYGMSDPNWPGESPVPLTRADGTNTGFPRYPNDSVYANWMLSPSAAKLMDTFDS
MST1R, sequence (Q04912 25-1400): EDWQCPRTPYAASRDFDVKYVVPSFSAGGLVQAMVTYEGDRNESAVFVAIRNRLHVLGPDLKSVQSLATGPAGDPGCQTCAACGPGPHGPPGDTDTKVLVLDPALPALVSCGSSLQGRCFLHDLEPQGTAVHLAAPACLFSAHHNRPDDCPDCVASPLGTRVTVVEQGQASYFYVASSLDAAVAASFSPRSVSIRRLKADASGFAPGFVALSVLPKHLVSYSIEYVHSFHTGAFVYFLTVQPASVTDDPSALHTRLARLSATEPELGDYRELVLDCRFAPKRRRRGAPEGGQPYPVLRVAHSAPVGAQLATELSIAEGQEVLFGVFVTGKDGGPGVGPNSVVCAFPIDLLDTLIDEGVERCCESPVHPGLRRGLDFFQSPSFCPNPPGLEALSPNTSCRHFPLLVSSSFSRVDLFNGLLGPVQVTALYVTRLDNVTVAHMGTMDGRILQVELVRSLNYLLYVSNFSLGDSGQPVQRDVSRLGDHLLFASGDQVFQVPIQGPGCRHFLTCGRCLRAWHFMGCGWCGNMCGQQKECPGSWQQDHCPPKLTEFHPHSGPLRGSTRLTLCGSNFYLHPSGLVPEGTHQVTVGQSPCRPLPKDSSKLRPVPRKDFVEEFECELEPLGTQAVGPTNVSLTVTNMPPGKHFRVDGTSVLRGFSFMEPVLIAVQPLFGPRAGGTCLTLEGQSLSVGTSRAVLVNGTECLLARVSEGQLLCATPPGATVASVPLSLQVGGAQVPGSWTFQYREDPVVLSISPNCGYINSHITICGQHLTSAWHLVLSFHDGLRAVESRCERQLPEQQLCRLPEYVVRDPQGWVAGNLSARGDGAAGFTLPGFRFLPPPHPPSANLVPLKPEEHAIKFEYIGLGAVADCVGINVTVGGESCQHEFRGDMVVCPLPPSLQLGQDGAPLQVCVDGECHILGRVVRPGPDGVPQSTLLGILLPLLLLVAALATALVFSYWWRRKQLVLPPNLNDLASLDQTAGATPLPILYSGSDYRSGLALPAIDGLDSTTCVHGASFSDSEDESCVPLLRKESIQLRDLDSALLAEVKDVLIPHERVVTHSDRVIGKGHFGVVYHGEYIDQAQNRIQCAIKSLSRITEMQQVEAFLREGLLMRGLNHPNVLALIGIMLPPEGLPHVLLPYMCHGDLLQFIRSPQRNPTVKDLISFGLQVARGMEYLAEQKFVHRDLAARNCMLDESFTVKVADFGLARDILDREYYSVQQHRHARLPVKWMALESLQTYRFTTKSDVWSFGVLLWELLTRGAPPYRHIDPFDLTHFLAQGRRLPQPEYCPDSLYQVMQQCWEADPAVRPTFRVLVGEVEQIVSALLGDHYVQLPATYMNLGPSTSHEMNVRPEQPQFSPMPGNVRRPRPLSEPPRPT
MET, sequence (P08581 25-1390): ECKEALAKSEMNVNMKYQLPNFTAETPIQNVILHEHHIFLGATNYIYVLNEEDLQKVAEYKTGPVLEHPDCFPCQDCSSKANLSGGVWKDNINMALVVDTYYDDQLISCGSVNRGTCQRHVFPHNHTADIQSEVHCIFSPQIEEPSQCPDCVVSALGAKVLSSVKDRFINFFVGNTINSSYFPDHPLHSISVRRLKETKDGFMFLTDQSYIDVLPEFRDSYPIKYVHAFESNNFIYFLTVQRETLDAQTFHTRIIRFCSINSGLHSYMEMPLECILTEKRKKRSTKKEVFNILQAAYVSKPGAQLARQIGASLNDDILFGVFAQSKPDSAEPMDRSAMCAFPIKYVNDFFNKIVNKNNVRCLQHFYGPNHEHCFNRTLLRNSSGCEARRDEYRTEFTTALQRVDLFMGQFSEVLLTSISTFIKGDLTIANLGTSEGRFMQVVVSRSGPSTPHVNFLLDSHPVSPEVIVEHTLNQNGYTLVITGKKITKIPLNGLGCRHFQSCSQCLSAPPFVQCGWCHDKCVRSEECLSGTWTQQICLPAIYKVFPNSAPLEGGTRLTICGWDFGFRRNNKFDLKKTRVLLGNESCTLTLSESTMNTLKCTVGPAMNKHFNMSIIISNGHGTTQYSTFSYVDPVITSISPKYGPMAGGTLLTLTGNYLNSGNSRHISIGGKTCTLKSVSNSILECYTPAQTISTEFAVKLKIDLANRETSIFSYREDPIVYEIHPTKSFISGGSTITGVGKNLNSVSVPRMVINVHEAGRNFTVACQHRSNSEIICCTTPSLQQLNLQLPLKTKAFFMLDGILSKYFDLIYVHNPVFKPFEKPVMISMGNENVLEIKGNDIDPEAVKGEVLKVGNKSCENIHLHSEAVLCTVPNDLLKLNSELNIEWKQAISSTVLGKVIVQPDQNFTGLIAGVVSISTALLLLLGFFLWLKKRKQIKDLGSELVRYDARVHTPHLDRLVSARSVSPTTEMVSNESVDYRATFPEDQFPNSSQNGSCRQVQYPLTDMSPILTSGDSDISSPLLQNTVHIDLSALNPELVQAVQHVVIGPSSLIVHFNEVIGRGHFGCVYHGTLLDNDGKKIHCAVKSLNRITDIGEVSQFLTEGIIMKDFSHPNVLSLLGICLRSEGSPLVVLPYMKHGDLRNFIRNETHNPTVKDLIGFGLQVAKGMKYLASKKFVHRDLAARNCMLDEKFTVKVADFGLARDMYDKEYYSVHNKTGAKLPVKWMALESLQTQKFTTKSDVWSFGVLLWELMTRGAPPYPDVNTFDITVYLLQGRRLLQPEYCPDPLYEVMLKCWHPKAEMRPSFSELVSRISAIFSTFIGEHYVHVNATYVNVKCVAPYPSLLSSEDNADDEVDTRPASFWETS

One may read the % Inhibition as the percentage by which the read-out fell short of the control. A high value points to a strong effect. As for `Cn1ncc2cc(Oc3ccc(NC(=O)c4ccc(CO)n(-c5ccc(F)cc5)c4=O)cc3F)c(-c3cn[nH]c3)cc21` [M2], on MERTK, the “% Inhibition at 0.2 μM, MERTK” value stood at 93%. Further, at MKNK1, the “% Inhibition at 0.2 μM, MKNK1” value worked out at 62%. The “% Inhibition at 0.2 μM, TEK (TIE2)” value at TEK (TIE2) is 100%. The “p-ERK inhibition (in words)” value in [1] is given as “slightly less so”. For the same compound, at RET, the “% Inhibition at 0.2 μM, RET” value turned out to be 61%. In addition, at MET, the “% Inhibition at 0.2 μM, MET” value worked out at 93%. Further, at MST1R, the “% Inhibition at 0.2 μM, MST1R” value is recorded as 88%. For the same compound, the “p-eIF4E reduction (MKNK1/2 inhibition, in words)” value in experiment [2] was “slightly less so”. In addition, the “% Inhibition at 0.2 μM, DDR2” value on DDR2 was determined as 99%. Moreover, the “p-NTRK1 inhibition (in words)” value in [3] is recorded as “slightly less so”.

A word on the inhibition: it is how much of the control response was suppressed. Regarding `Cc1ccc(C(=O)Nc2ccc(Oc3cc4cnn(C)c4cc3-c3cn[nH]c3)c(F)c2)c(=O)n1-c1ccc(F)cc1` [Merestinib], the inhibition at 0.2 µM at MERTK (read-out: % Inhibition at 0.2 μM, MERTK) was found to be 96%; on MKNK1 (read-out: % Inhibition at 0.2 μM, MKNK1) it was 56%. Moreover, on TEK (TIE2), the “% Inhibition at 0.2 μM, TEK (TIE2)” value was found to be 99%. Besides, in experiment [1], the “p-ERK inhibition (in words)” value is “dose dependent inhibition; also recorded: potent inhibition”. On RET, the “% Inhibition at 0.2 μM, RET” value worked out at 79%. For the same compound, the “% Inhibition at 0.2 μM, MET” value on MET is 98%. The “% Inhibition at 0.2 μM, MST1R” value on MST1R was 96%. Further, the “Concentration giving near-complete inhibition of p-eIF4E” value in experiment [2] (3.9-1000 nM) was 62.5 nM. The “p-eIF4E reduction (MKNK1/2 inhibition, in words)” value in [2] was “potent inhibition”. In addition, at DDR2, the “% Inhibition at 0.2 μM, DDR2” value was determined as 97%. Moreover, in [3], the “p-NTRK1 inhibition (in words)” value is reported as “dose dependent decrease; also recorded: potent inhibition”.

In the case of `Cc1ccc(C(=O)Nc2ccc(Oc3cc4cn[nH]c4cc3-c3cn[nH]c3)c(F)c2)c(=O)n1-c1ccc(F)cc1` [M1], the “% Inhibition at 0.2 μM, MERTK” value at MERTK was 99%. Moreover, the “% Inhibition at 0.2 μM, MKNK1” value at MKNK1 was determined as 70%. Further, the “% Inhibition at 0.2 μM, TEK (TIE2)” value on TEK (TIE2) is reported as 100%. In addition, the “p-ERK inhibition (in words)” value in [1] was “potent inhibition”. At RET, the “% Inhibition at 0.2 μM, RET” value is recorded as 72%. The “% Inhibition at 0.2 μM, MET” value on MET is listed as 100%. Also, on MST1R, the “% Inhibition at 0.2 μM, MST1R” value is 95%. Also, the “p-eIF4E reduction (MKNK1/2 inhibition, in words)” value in experiment [2] is reported as “potent inhibition”. Also, the “% Inhibition at 0.2 μM, DDR2” value on DDR2 was determined as 94%. For the same compound, in [3], the “p-NTRK1 inhibition (in words)” value is recorded as “potent inhibition”.
